Results published in the supplement of paper PMC11061612.

What was measured:
Carboplatin = compound: C1CC(C1)(C(=O)[O-])C(=O)[O-].N.N.[Pt+2] [Carboplatin]; details: max 10 µM
In short: (§1)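 In 1536-well plates, cancer cell lines in 7.5 μl DMEM/F12 or RPMI with 10% FBS spent 24 hours at 37°C and 5% CO2 and were then dosed for 72 hours with final DMSO typically 0.2%. Viability was read by CellTiter-Glo 2.0 luminescence and scaled between blank-well and DMSO-well means. The single-agent IC50 was fitted from dose responses using a logistic curve in a non-linear mixed effects model, and that logistic curve had two parameters.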

AZD5363 = compound: C1CN(CCC1(C(=O)N[C@@H](CCO)C2=CC=C(C=C2)Cl)N)C3=NC=NC4=C3C=CN4 [AZD5363]; details: max 10 µM
In short: as §1

AZD1775 = compound: C=CCn1c(=O)c2cnc(Nc3ccc(N4CCN(C)CC4)cc3)nc2n1-c1cccc(C(C)(C)O)n1 [AZD1775]; details: max 3 µM
In short: as §1

Trametinib = compound: CC(=O)Nc1cccc(-n2c(=O)n(C3CC3)c(=O)c3c(Nc4ccc(I)cc4F)n(C)c(=O)c(C)c32)c1 [Trametinib]; details: max 1 µM
In short: as §1

Paclitaxel = compound: CC(=O)O[C@H]1C(=O)[C@@]2(C)[C@H]([C@H](OC(=O)c3ccccc3)[C@]3(O)C[C@H](OC(=O)[C@H](O)[C@@H](NC(=O)c4ccccc4)c4ccccc4)C(C)=C1C3(C)C)[C@]1(OC(C)=O)CO[C@@H]1C[C@@H]2O [Paclitaxel]; details: max 3 µM
In short: as §1

Palbociclib = compound: CC(=O)c1c(C)c2cnc(Nc3ccc(N4CCNCC4)cn3)nc2n(C2CCCC2)c1=O [Palbociclib]; details: max 10 µM
In short: as §1

AZD1390 = compound: CC(C)n1c(=O)n(C)c2cnc3cc(F)c(-c4ccc(OCCCN5CCCCC5)nc4)cc3c21 [AZD1390]; details: max 0.3 µM
In short: as §1

Venetoclax = compound: CC1(C)CCC(CN2CCN(c3ccc(C(=O)NS(=O)(=O)c4ccc(NCC5CCOCC5)c([N+](=O)[O-])c4)c(Oc4cnc5[nH]ccc5c4)c3)CC2)=C(c2ccc(Cl)cc2)C1 [Venetoclax]; details: max 1 µM
In short: as §1

Dasatinib = compound: CC1=C(C(=CC=C1)Cl)NC(=O)C2=CN=C(S2)NC3=CC(=NC(=N3)C)N4CCN(CC4)CCO [Dasatinib]; details: max 2 µM
In short: as §1

SG3199 = compound: CC1=CN2[C@@H](C1)C=NC3=CC(=C(C=C3C2=O)OC)OCCCCCOC4=C(C=C5C(=C4)N=C[C@@H]6CC(=CN6C5=O)C)OC [SG3199]; details: max 0.001 µM
In short: as §1

AZD2811 = compound: CCN(CCO)CCCOc1ccc2c(Nc3cc(CC(=O)Nc4cccc(F)c4)[nH]n3)ncnc2c1 [AZD2811]; details: max 1 µM
In short: as §1

SN-38 = compound: CCc1c2c(nc3ccc(O)cc13)-c1cc3c(c(=O)n1C2)COC(=O)[C@]3(O)CC [SN-38]; details: max 0.3 µM
In short: as §1

AZD0156 = compound: CN(C)CCCOc1ccc(-c2ccc3ncc4c(c3c2)n(C2CCOCC2)c(=O)n4C)cn1 [AZD0156]; details: max 3 µM
In short: as §1

AZD4320 = compound: CN(CC[C@H](CSC1=CC=CC=C1)NC2=C(C=C(C=C2)S(=O)(=O)NC(=O)C3=CC=C(C=C3)N4CCC(CC4)[C@H](C5=CC=CC=C5C6=CC=C(C=C6)Cl)O)S(=O)(=O)C(F)(F)F)CCO [AZD4320]; details: max 1 µM
In short: as §1

Alisertib = compound: COc1cc(Nc2ncc3c(n2)-c2ccc(Cl)cc2C(c2c(F)cccc2OC)=NC3)ccc1C(=O)O [Alisertib]; details: max 10 µM
In short: as §1

Etoposide = compound: COc1cc([C@@H]2c3cc4c(cc3[C@@H](O[C@@H]3O[C@@H]5CO[C@@H](C)O[C@H]5[C@H](O)[C@H]3O)[C@H]3COC(=O)[C@H]23)OCO4)cc(OC)c1O [Etoposide]; details: max 10 µM
In short: as §1

Gefitinib = compound: COc1cc2ncnc(Nc3ccc(F)c(Cl)c3)c2cc1OCCCN1CCOCC1 [Gefitinib]; details: max 10 µM
In short: as §1

Prexasertib = compound: COc1cccc(OCCCN)c1-c1cc(Nc2cnc(C#N)cn2)n[nH]1 [Prexasertib]; details: max 1 µM
In short: as §1

Doxorubicin = compound: COc1cccc2c1C(=O)c1c(O)c3c(c(O)c1C2=O)C[C@@](O)(C(=O)CO)C[C@@H]3O[C@H]1C[C@H](N)[C@H](O)[C@H](C)O1 [Doxorubicin]; details: max 1 µM
In short: as §1

AZD5153 = compound: COc1nnc2ccc(N3CCC(c4ccc(OCCN5CCN(C)C(=O)[C@H]5C)cc4)CC3)nn12 [AZD5153]; details: max 1 µM
In short: as §1

Lapatinib = compound: CS(=O)(=O)CCNCc1ccc(-c2ccc3ncnc(Nc4ccc(OCc5cccc(F)c5)c(Cl)c4)c3c2)o1 [Lapatinib]; details: max 10 µM
In short: as §1

AZD8186 = compound: C[C@@H](Nc1cc(F)cc(F)c1)c1cc(C(=O)N(C)C)cc2c(=O)cc(N3CCOCC3)oc12 [AZD8186]; details: max 10 µM
In short: as §1

Crizotinib = compound: C[C@@H](Oc1cc(-c2cnn(C3CCNCC3)c2)cnc1N)c1c(Cl)ccc(F)c1Cl [Crizotinib]; details: max 10 µM
In short: as §1

Savolitinib = compound: C[C@@H](c1ccc2nccn2c1)n1nnc2ncc(-c3cnn(C)c3)nc21 [Savolitinib]; details: max 1 µM
In short: as §1

AZD6738 = compound: C[C@@H]1COCCN1C2=NC(=NC(=C2)C3(CC3)[S@](=N)(=O)C)C4=C5C=CNC5=NC=C4 [AZD6738]; details: max 10 µM
In short: as §1

AZD5991 = compound: Cc1c2c(nn1C)CSCc1cc(n(C)n1)CSc1cc(c3ccccc3c1)OCCCc1c(C(=O)O)n(C)c3c-2c(Cl)ccc13 [AZD5991]; details: max 1 µM
In short: as §1

AZD7648 = compound: Cc1cc2ncnn2cc1Nc1ncc2c(n1)n(C1CCOCC1)c(=O)n2C [AZD7648]; details: max 10 µM
In short: as §1

Taselisib = compound: Cc1nc(-c2cn3c(n2)-c2ccc(-c4cnn(C(C)(C)C(N)=O)c4)cc2OCC3)n(C(C)C)n1 [Taselisib]; details: max 10 µM
In short: as §1

Selumetinib = compound: Cn1cnc2c(F)c(Nc3ccc(Br)cc3Cl)c(C(=O)NOCCO)cc21 [Selumetinib]; details: max 10 µM
In short: as §1

SRA737 = compound: N#Cc1cnc(Nc2cc(NC[C@H]3CNCCO3)c(C(F)(F)F)cn2)cn1 [SRA737]; details: max 10 µM
In short: as §1

MK-2206 = compound: NC1(c2ccc(-c3nc4ccn5c(=O)[nH]nc5c4cc3-c3ccccc3)cc2)CCC1 [MK-2206]; details: max 10 µM
In short: as §1

Gemcitabine = compound: Nc1ccn([C@@H]2O[C@H](CO)[C@@H](O)C2(F)F)c(=O)n1 [Gemcitabine]; details: max 0.3 µM
In short: as §1

[1] = compound: O=C(Nc1ccc2[nH]nc(-c3ccncc3)c2c1)[C@@H]1CCN(CC(=O)N2CCN(c3ccc(-c4ncccn4)cc3)CC2)C1; details: max 5 µM
In short: as §1

Olaparib = compound: O=C(c1cc(Cc2n[nH]c(=O)c3ccccc23)ccc1F)N1CCN(C(=O)C2CC2)CC1 [Olaparib]; details: max 10 µM
In short: as §1

5-Fluorouracil = compound: O=c1[nH]cc(F)c(=O)[nH]1 [5-Fluorouracil]; details: max 20 µM
In short: as §1

Row | Cell Line | IC50, cell viability 72 h (Carboplatin) | IC50, cell viability 72 h (AZD5363) | IC50, cell viability 72 h (AZD1775) | IC50, cell viability 72 h (Trametinib) | IC50, cell viability 72 h (Paclitaxel) | IC50, cell viability 72 h (Palbociclib) | IC50, cell viability 72 h (AZD1390) | IC50, cell viability 72 h (Venetoclax) | IC50, cell viability 72 h (Dasatinib) | IC50, cell viability 72 h (SG3199) | IC50, cell viability 72 h (AZD2811) | IC50, cell viability 72 h (SN-38) | IC50, cell viability 72 h (AZD0156) | IC50, cell viability 72 h (AZD4320) | IC50, cell viability 72 h (Alisertib) | IC50, cell viability 72 h (Etoposide) | IC50, cell viability 72 h (Gefitinib) | IC50, cell viability 72 h (Prexasertib) | IC50, cell viability 72 h (Doxorubicin) | IC50, cell viability 72 h (AZD5153) | IC50, cell viability 72 h (Lapatinib) | IC50, cell viability 72 h (AZD8186) | IC50, cell viability 72 h (Crizotinib) | IC50, cell viability 72 h (Savolitinib) | IC50, cell viability 72 h (AZD6738) | IC50, cell viability 72 h (AZD5991) | IC50, cell viability 72 h (AZD7648) | IC50, cell viability 72 h (Taselisib) | IC50, cell viability 72 h (Selumetinib) | IC50, cell viability 72 h (SRA737) | IC50, cell viability 72 h (MK-2206) | IC50, cell viability 72 h (Gemcitabine) | IC50, cell viability 72 h [1] | IC50, cell viability 72 h (Olaparib) | IC50, cell viability 72 h (5-Fluorouracil)
1 | BFTC-905 (Bladder Carcinoma) | > 10 µM | > 10 µM | 0.68 µM | 0.0864 µM | 0.00602 µM | > 10 µM | > 0.3 µM | > 1 µM | 1.53 µM | > 0.001 µM | > 1 µM | 0.00455 µM | > 3 µM | > 1 µM | 1.25 µM | 1.16 µM | > 10 µM | 0.117 µM | 0.196 µM | 0.173 µM | > 10 µM | > 10 µM | 5.24 µM | > 1 µM | 3.79 µM | > 1 µM | > 10 µM | 1.39 µM | 6.56 µM | > 10 µM | > 10 µM | 0.0107 µM | 1.05 µM | > 10 µM | > 20 µM
2 | BL-41 (Burkitt's Lymphoma) | > 10 µM | > 10 µM | 0.264 µM | > 1 µM | 0.00391 µM | > 10 µM | > 0.3 µM | > 1 µM | > 2 µM | > 0.001 µM | 0.048 µM | 0.00217 µM | > 3 µM | > 1 µM | 0.0285 µM | 0.342 µM | > 10 µM | 0.00367 µM | 0.0377 µM | 0.046 µM | 6.1 µM | > 10 µM | 2.44 µM | > 1 µM | 0.618 µM | 0.0482 µM | > 10 µM | > 10 µM | > 10 µM | 2 µM | > 10 µM | 0.0085 µM | > 5 µM | > 10 µM | > 20 µM
3 | CAMA-1 (Breast Carcinoma) | > 10 µM | 4.86 µM | > 3 µM | > 1 µM | 0.112 µM | > 10 µM | > 0.3 µM | > 1 µM | > 2 µM | > 0.001 µM | > 1 µM | > 0.3 µM | > 3 µM | > 1 µM | > 10 µM | > 10 µM | > 10 µM | > 1 µM | > 1 µM | > 1 µM | > 10 µM | 7.76 µM | > 10 µM | > 1 µM | > 10 µM | > 1 µM | > 10 µM | > 10 µM | > 10 µM | > 10 µM | > 10 µM | > 0.3 µM | > 5 µM | > 10 µM | > 20 µM
4 | DND-41 (T-Lymphoblastic Leukemia) | > 10 µM | > 10 µM | 0.334 µM | > 1 µM | > 3 µM | > 10 µM | > 0.3 µM | 0.546 µM | > 2 µM | > 0.001 µM | > 1 µM | 0.00288 µM | > 3 µM | 0.0338 µM | > 10 µM | 0.763 µM | > 10 µM | 0.00675 µM | 0.424 µM | 0.595 µM | 7.51 µM | > 10 µM | 4.77 µM | > 1 µM | 1.5 µM | > 1 µM | > 10 µM | > 10 µM | > 10 µM | 1.09 µM | > 10 µM | 0.0954 µM | > 5 µM | > 10 µM | > 20 µM
5 | ES1 (Ewing's Sarcoma) | > 10 µM | > 10 µM | 0.784 µM | > 1 µM | < 0.003 µM | 2.17 µM | > 0.3 µM | > 1 µM | > 2 µM | > 0.001 µM | 0.51 µM | 0.0031 µM | > 3 µM | > 1 µM | 2.37 µM | 0.335 µM | > 10 µM | 0.0135 µM | 0.101 µM | 0.604 µM | > 10 µM | 8.67 µM | 2.48 µM | > 1 µM | 1.73 µM | 0.435 µM | > 10 µM | 1.05 µM | > 10 µM | 2 µM | 3.97 µM | 0.00261 µM | > 5 µM | 4.47 µM | 9.22 µM
